{"source": "paper PMC11378297", "about": "“Discovery and Profiling of New Multimodal Phenylglycinamide Derivatives as Potent Antiseizure and Antinociceptive Drug Candidates” (ACS Chemical Neuroscience, 2024)", "key": {"[1]": {"test": "hepatotoxicity, HepG2 cell viability", "assay_type": "cell-based, human", "conditions": "human, HepG2 hepatoma cells; 1 μM, 72 h of incubation (Figure 11)", "method": "The hepatotoxicity potential was assessed with the HepG2 cell line and the reference cytostatic drug doxorubicin.\nThe results are presented as means + SD. Statistical significance was evaluated by one-way ANOVA, followed by Bonferroni’s multiple comparison post hoc test (Graph Pad Prism 8.0.1 software, San Diego, CA, USA): *p < 0.05, ***p < 0.001, ****p < 0.0001 vs negative control (DMSO 1% in growth media)."}, "[2]": {"test_system": "mice (motor coordination)", "conditions": "reference ASMs, rotarod test, i.p.; cited from earlier work"}, "[3]": {"test_system": "maximal electroshock (MES) seizures, mice", "conditions": "i.p., cited from earlier work"}, "[4]": {"test_system": "6 Hz (44 mA) seizures, mice", "conditions": "i.p., cited from earlier work"}, "[5]": {"test_system": "glutamate and GABA concentrations in brain", "test": "glutamate and GABA concentrations in hippocampus and cortex of PTZ-kindled mice", "assay_type": "in vivo, mouse", "source_text": "After behavioral tests (FST, PTZ-induced kindling), we determined the changes in glutamate and GABA concentrations in the hippocampus and cortex. Since exposure to the FST can evoke various neurochemical alterations, two additional groups were employed in this experiment, i.e., control nonkindled mice that were exposed to the FST and naïve mice. No marked differences in both glutamate and GABA concentrations in the hippocampus were observed (Figure 5A). […] We found a significant increase in glutamate concentration in the cortex of mice subjected to the FST (p < 0.05 vs naive mice). […] Given that seizures are typically accompanied by elevated extracellular glutamate levels (an excitatory neurotransmitter), a decreased glutamate concentration in the cortex of kindled animals may appear to be an unexpected outcome. It should be highlighted, however, that the concentrations of glutamate and GABA in tissue homogenates rather than dialysate were measured in brain samples acquired 24 h following the previous PTZ dose, which may have an impact on the outcomes. On the other hand, decreased glutamate levels could be caused by the up-regulation of glutamate transporters, as the expression of glutamate transporters can increase following seizures.[48] For example, an increased expression of hippocampal GLT-1 was observed 24 h after kainic acid-induced status epilepticus in mice and PTZ-induced kindling in rats.[49] Moreover, similar to our findings, Szyndler et al.([50]) found decreased glutamate concentrations, with no changes in GABA concentrations, in homogenates of the hippocampus, striatum, and prefrontal cortex of PTZ-kindled rats.\nFigure 5 Changes in glutamate and GABA concentrations in the hippocampus (A) and cortex (B). Data are shown as means + SD (n = 9–14 animals). Statistical significance was evaluated by one-way ANOVA followed by Tukey’s post hoc test: *p < 0.05, **p < 0.01, ***p < 0.001 (GraphPad Prism 8.4.3).\nGABA and glutamate concentrations were determined using liquid chromatography tandem mass spectrometry (LC-MS/MS) in the mouse prefrontal cortex and hippocampus. Toronto Research Chemicals Inc. was the source of the standards for both analytes (Toronto, ON, Canada). GABA and glutamate stock standard solutions were made in methanol and deionized water, respectively, and kept cold at 4 °C. The stock solutions were suitably diluted to create a range of solution combinations with the appropriate concentrations. Prior to analysis, a hand-held pestle and glass tube homogenizer (Potter–Elvehjem PTFE pestle and glass tube, Sigma-Aldrich, St. Louis, MO, USA) were used to homogenize mouse brains in distilled water at a ratio of 50 μL/mg. Following a 10 min centrifugation at 8000g for 10 min at 4 °C, homogenates were diluted 10 times with 0.1% formic acid in MeCN from the supernatant. Samples (10 μL) were deproteinized with 80 μL of 0.1% formic acid in MeCN by shaking for 10 min (IKA Vibrax VXR, IKA Werke GmbH & Co. KG, Staufen im Breisgau, Germany) and centrifuged for 5 min at the speed of 8000g (Eppendorf miniSpin centrifuge) after isotope-labeled GABA-d6 and glutamate-d5 (Toronto Research Chemicals Inc., Toronto, ON, Canada) were added as internal standards (10 μL at the concentration of 500 ng/mL). The autosampler vials were filled with the acquired supernatants. […]"}, "[6]": {"test_system": "6 Hz (32 mA) seizures, mice", "conditions": "i.p., cited from earlier work"}, "[7]": {"test_system": "formalin-induced pain, mice", "design": "method as in PMID 28934547", "conditions": "previously tested in the authors' laboratory; cited from earlier work"}, "[8]": {"test_system": "mature-BDNF (mBDNF) expression", "test": "mBDNF expression in hippocampus and cortex of PTZ-kindled mice (Western blot)", "assay_type": "in vivo, mouse", "conditions": "VPA repeated (150 mg/kg), p < 0.01 vs PTZ kindling control", "source_text": "However, there are also few reports showing opposite findings.[51],[52] […] No changes in the expression of the nerve growth factor (NGF) were observed (Figure 6D–F).\nFigure 6 Changes in mature-BDNF (mBDNF) expression in hippocampus (A) and cortex (C) and in proNGF expression in hippocampus (D) and cortex (F) with representative immunoblots, together with total protein amount visualized by the stain-free technique (B,E). Data are shown as means of relative expressions + SD (n = 8). Statistical significance was evaluated by one-way ANOVA followed by Tukey’s post hoc test: **p < 0.01 (GraphPad Prism 8.4.3).\nThe Western Blot method was used to assess the expression of proNGF and mBDNF in the mouse brain and hippocampal tissues. Using a bead homogenizer (Bead Ruptor Elite, Omni International, USA), the cortical and hippocampal regions of the mouse brain were weighted and homogenized at a ratio of 9 μL/mg in 2% SDS supplemented with a cocktail of protease (Thermo Scientific, Walthman, MA, USA) and phosphatase inhibitors (Sigma-Aldrich, St. Louis, MO, USA). Samples were then centrifuged at 10,000g for 10 min at 4 °C after being denatured for 10 min at 95 °C. […] One-way ANOVA with Tukey’s post hoc test was utilized to examine changes in the relative expression of the proteins that were evaluated."}, "[9]": {"test_system": "capsaicin-induced pain, mice", "design": "method as in PMID 28934547", "conditions": "200 mg/kg; cited from earlier work"}, "[10]": {"test_system": "PTZ-induced kindling, mice", "test": "PTZ-induced kindling model", "assay_type": "in vivo, mouse", "conditions": "150 mg/kg i.p. repeatedly, positive control", "protocol": "We investigated the impact of lead compound (R)-32 on PTZ-induced kindling in mice to further assess its antiseizure potential (Figure 3). […] The PTZ-induced kindling model is widely recognized as a useful method to induce chronic increase in susceptibility to epileptic seizures.\nFigure 3 Effect of repeated treatment with (R)-32 in PTZ-induced kindling model in mice. […] Data are presented as means of seizure severity (n = 10–15 animals). Statistical significance was evaluated by a mixed effects model for repeated measures followed by Tukey’s post hoc test: **p < 0.01, […] vs control group (GraphPad Prism 8.4.3).\nThe procedure was performed as described in detail in our previous studies.[88],[89] […] Seizures were induced three times a week by i.p. administration of PTZ at a subconvulsive dose of 40 mg/kg. […] The seizure severity was scored using the modified Racine’s scale. […] The locomotor activity test, the elevated plus maze test, and the FST were performed 24 h after the last PTZ injection, according to the methods described in detail elsewhere. After completion of behavioral tests, animals were sacrificed. Hippocampi and cortices were dissected from the brains, frozen, and stored at −80 °C until assay. Following each PTZ injection, the mean seizure severity scores were determined for each experimental group. A mixed effects model for repeated measurements was used for analysis, along with Tukey’s post hoc test. The percentage of fully kindled mice was compared using Fisher’s exact probability test."}, "[11]": {"test_system": "mice (motor coordination)", "conditions": "racemates, chimney test, i.p.; cited from earlier work"}, "[12]": {"conditions": "reference ASMs, pretreatment time 0.5 h (LCS, VPA) or 1.0 h (LEV, CBD)"}, "[13]": {"conditions": "racemates, pretreatment time 0.5 h"}}, "note": "Read-outs that look alike come from different tables or passages of the source. Marks after values point to notes of the source that are not given here."}
{"molecule": "COc1cccc2c1C(=O)c1c(O)c3c(c(O)c1C2=O)C[C@@](O)(C(=O)CO)C[C@@H]3O[C@H]1C[C@H](N)[C@H](O)[C@H](C)O1", "note": "[doxorubicin, reference compound]", "values": [{"measurement": "viability at 72 h, 1 µM", "setting": "[1]", "result": "~20", "unit": "%"}]}
{"molecule": "CC[C@@H](C(N)=O)N1CCCC1=O", "note": "[LEV, levetiracetam]", "values": [{"measurement": "TD50", "setting": "[2]", "result": ">500 ^c mg/kg"}, {"measurement": "ED50 MES", "setting": "[3]; reference ASMs, pretreatment time 0.5 h (LCS, VPA) or 1.0 h (LEV, CBD), literature or own experiments", "result": ">500", "unit": "mg/kg"}, {"measurement": "ED50 6 Hz (44 mA)", "setting": "[4]; [12]", "result": 204.0, "unit": "mg/kg"}]}
{"molecule": "CCCC(CCC)C(=O)O", "note": "[VPA, valproic acid, reference compound]", "values": [{"measurement": "GABA concentration in the cortex", "setting": "[5]; 150 mg/kg, p < 0.05 vs PTZ-kindled control group", "result": "significantly decreased"}, {"measurement": "glutamate concentration in the hippocampus", "setting": "[5]; vs nonkindled FST control group", "result": "slight decrease"}, {"measurement": "ED50 6 Hz (32 mA)", "setting": "[6]; [12]", "result": 130.6, "unit": "mg/kg"}, {"measurement": "ED50 in the late phase of the formalin test", "setting": "[7]", "result": 132.9, "unit": "mg/kg"}, {"measurement": "mBDNF protein expression in the hippocampus (PTZ kindling-induced overexpression)", "setting": "[8]", "result": "reversed the overexpression"}, {"measurement": "activity in capsaicin-induced pain", "setting": "[9]", "result": "active only at the highest administered dose"}, {"measurement": "effect on kindling progression", "setting": "[10]", "result": "suppressed kindling progression"}]}
{"molecule": "CC(=O)NC(C(=O)N1CCN(c2cccc(C(F)(F)F)c2)CC1)c1ccccc1", "note": "(stereo not drawn) [KJ-5]", "values": [{"measurement": "ED50 6 Hz (32 mA)", "setting": "[6]; [13]", "result": 29.9, "unit": "mg/kg"}, {"measurement": "ED50 MES", "setting": "[3]; [13]", "result": 89.7, "unit": "mg/kg"}, {"measurement": "ED50 6 Hz (44 mA)", "setting": "[4]; [13]", "result": 68.0, "unit": "mg/kg"}, {"measurement": "TD50", "setting": "[11]", "result": "179.7 ^b mg/kg"}]}
